Test results from patent US5496808A (priority 1991, dated 1996).
≈ marks a conversion by molar mass, not a printed value. Read-outs that look alike come from different tables or passages of the source.

Experiments:
[1] = system: LoVo (colon adenocarcinama); assay: cells; type: cell-based, human; details: for IC50: Homo sapiens, read-out: Cytotoxicity IC50 LoVo
Source text: (§1) Colony assay: 4 hr treatment
(§2) ^(1) IC50 = concentration inhibiting 50% of colony formation

[2] = system: LoVo/DX (colon adenocarcinoma resistant to Doxorubicin); assay: cells; details: for IC50: Homo sapiens, 4 h, read-out: Cytotoxicity IC50 LoVo/DX
Source text: as §1, §2
^(2) R.I. = Resistance Index = (IC50 LoVo/DX)(IC50 LoVo)

Ascitic P388 Leukemia = assay: Antitumor activity "in vivo" against ascitic P388 leukemia, sensitive to Doxorubicin; parameters: species or system murine
Method: ^(3) 10^6 cell/mouse were injected i.p. on day 0.
(§3) ^(4) Compounds were suspended in Tween 80 10% and injected i.p. one
(§4) day after tumor transplantation.
(§5) ^(5) Median survival time of treated mice/Median survival time of
(§6) ^(6) No. of toxic deaths/total No. of mice.

[3] = system: Disseminated P388/DX Johnson Leukemia; assay: Antitumor activity "in vivo" against disseminated P388/DX Johnson leukemia, resistant to Doxorubicin; parameters: species or system murine
Method: ^(7) 10^5 cell/mouse were injected i.v. on day 0.
as §3, §4, §5, §6

[4] = 0.33 mg/kg i.p. one day after tumor transplantation
[5] = 0.5 mg/kg i.p. one day after tumor transplantation
[6] = 0.75 mg/kg i.p. one day after tumor transplantation
[7] = 1.9 mg/kg i.p. one day after tumor transplantation
[8] = 2.5 mg/kg i.p. one day after tumor transplantation
[9] = 10.0 mg/kg i.p. one day after tumor transplantation
[10] = 15.0 mg/kg i.p. one day after tumor transplantation
[11] = 22.0 mg/kg i.p. one day after tumor transplantation
[12] = 1.0 mg/kg i.p. one day after tumor transplantation
[13] = 1.4 mg/kg i.p. one day after tumor transplantation
[14] = 2.0 mg/kg i.p. one day after tumor transplantation
[15] = 2.8 mg/kg i.p. one day after tumor transplantation
[16] = 1.2 mg/kg i.p. one day after tumor transplantation
[17] = 1.6 mg/kg i.p. one day after tumor transplantation
[18] = 2.1 mg/kg i.p. one day after tumor transplantation
[19] = 3.7 mg/kg i.p. one day after tumor transplantation

CC(=O)[C@]1(O)Cc2c(O)c3c(c(O)c2[C@@H](O[C@H]2C[C@H](N)[C@H](O)[C@H](C)O2)C1)C(=O)c1ccccc1C3=O [4-demethoxydaunorubicin]
IC50 ([1]; 4 h): 0.004 mg/L (≈ 0.00804 µM) | IC50 ([2]; LoVo/DX): 0.048 mg/L (≈ 0.0965 µM) | R.I. = Resistance Index (IC50 LoVo/DX)(IC50 LoVo) ([2]; human, lovo/dx vs lovo, 240 min): 12.0 | T/C (median survival time of treated mice/controls × 100) (Ascitic P388 Leukemia; [4]): 142% | TOX (Ascitic P388 Leukemia; [4]): 0/27 | T/C (median survival time of treated mice/controls × 100) (Ascitic P388 Leukemia; [5]): 160% | TOX (Ascitic P388 Leukemia; [5]): 0/28 | T/C (median survival time of treated mice/controls × 100) (Ascitic P388 Leukemia; [6]): 163% | TOX (Ascitic P388 Leukemia; [6]): 4/28 | T/C (median survival time of treated mice/controls × 100) [3, 7]: 106% | TOX [3, 7]: 0/10 | T/C (median survival time of treated mice/controls × 100) [3, 8]: 89% | TOX [3, 8]: 0/10

COc1cccc2c1C(=O)c1c(O)c3c(c(O)c1C2=O)C[C@@](O)(C(=O)CO)C[C@@H]3O[C@H]1C[C@H](N)[C@H](O)[C@H](C)O1 [Doxorubicin, doxorubicin]
IC50 ([1]; colony assay: 4 hr treatment): 0.0825 mg/L (≈ 0.152 µM) | IC50 ([2]; LoVo/DX): 4.98 mg/L (≈ 9.15 µM) | T/C (median survival time of treated mice/controls × 100) (Ascitic P388 Leukemia; [9]): 299% | TOX (Ascitic P388 Leukemia; [9]): 0/10 | T/C (median survival time of treated mice/controls × 100) (Ascitic P388 Leukemia; [10]): 90% | TOX (Ascitic P388 Leukemia; [10]): 3/6 | TOX ([3]; 16.9 mg/kg i.p. one day after tumor transplantation): 0/6 | T/C (median survival time of treated mice/controls × 100) [3, 11]: 94% | TOX [3, 11]: 3/6

CC(=O)[C@]1(O)Cc2c(O)c3c(c(O)c2[C@@H](O[C@H]2C[C@H](N(CCCl)CCCl)[C@H](OS(C)(=O)=O)[C@H](C)O2)C1)C(=O)c1ccccc1C3=O [compound 1h, 4-demethoxy-4'-O-methansulfonyl-N,N-bis(2-chloroethyl)daunorubicin]
Cytotoxicity IC50 LoVo ([1]; colony assay: 4 hr treatment): 0.0043 mg/L | R.I. = Resistance Index (IC50 LoVo/DX)(IC50 LoVo) ([2]; LoVo/DX versus LoVo, colony assay: 4 hr treatment): 3.3 | Cytotoxicity IC50 LoVo/DX ([2]; LoVo/DX, colony assay: 4 hr treatment): 0.014 mg/L | activity on the doxorubicin-resistant cell line compared with 4-demethoxydaunorubicin and Doxorubicin ([2]; LoVo/DX, in comparison with 4-demethoxydaunorubicin (3b) and Doxorubicin (3c)): striking higher activity | T/C (median survival time of treated mice/controls × 100) (Ascitic P388 Leukemia; [12]): 184% | TOX (Ascitic P388 Leukemia; [12]): 0/12 | T/C (median survival time of treated mice/controls × 100) (Ascitic P388 Leukemia; [13]): 217% | TOX (Ascitic P388 Leukemia; [13]): 0/6 | T/C (median survival time of treated mice/controls × 100) (Ascitic P388 Leukemia; [14]): 233% | TOX (Ascitic P388 Leukemia; [14]): 1/6 | T/C (median survival time of treated mice/controls × 100) (Ascitic P388 Leukemia; [15]): 78% | TOX (Ascitic P388 Leukemia; [15]): 6/6 | T/C (median survival time of treated mice/controls × 100) [3, 16]: 133% | TOX [3, 16]: 0/6 | T/C (median survival time of treated mice/controls × 100) [3, 17]: 144% | TOX [3, 17]: 0/6 | T/C (median survival time of treated mice/controls × 100) [3, 18]: 185% | TOX [3, 18]: 0/6 | T/C (median survival time of treated mice/controls × 100) [3, 15]: 220% | TOX [3, 15]: 0/6 | T/C (median survival time of treated mice/controls × 100) [3, 19]: 250% | TOX [3, 19]: 0/6 | activity when tested on resistant Leukemia ([3]; P388 resistant to Doxorubicin (Johnson)): high activity
